# Measurements reported in patent US20080318970A1, “Treatment of Infectious Diseases” (priority 2004, published 2008).
# How the values were obtained:
# [1] = test system: Enterococcus faecalis BG-029; assay: Mouse peritonitis model, bacterial counts in peritoneal fluid; format: in vivo, NMRI mice; conditions: neutropenic mice; subcutaneous; 6 h; ciprofloxacin 12.5 mg per mouse, trans-clopenthixol 5 mg per kg, alone or combined
# Method: Female NMRI mice (age, approximately 6 to 8 weeks; weight, 30±2 g) were used for the mouse […] peritonitis model (as described below). Bacterial suspensions were prepared from fresh overnight cultures (made from frozen stock cultures) on 5% blood agar plates as described above. […] The size of the inoculum was determined by viability counting on 5% blood agar. Neutropenia was introduced by pretreating the mice with cyclophosphamide (6 mg daily for three days). […] Inoculated untreated control mice were included in all trials. […] After the mice were killed, peritoneal washes were performed by injecting 2 ml of sterile saline intraperitoneally, followed by massage of the abdomen and then opening of the peritoneum to collect the fluid.
# E. faecalis F86 = assay: Checkerboard combination study (FIC index); format: cell-based, Enterococcus faecalis; conditions: anti-infective agent Dicloxacillin; isolate susceptible (S)
# Method: Enterococcus faecalis, F86. Susceptible clinical isolate. No development of resistance.
# (§1) The synergistic effect was studied by checkerboard combination studies exposing cells to 0-64 μg/ml anti-infective agent in the absence or presence of trans-flupenthixol, cis-flupenthixol or trans-clopenthixol. Each experiment was repeated in tripleduplicate. MIC values represent the mean values of two separate experiments,
# (§2) A log phase culture of bacteria was diluted with fresh pre-warmed medium and adjusted to a defined OD at 600 nm in order to give a final concentration of 1×10^4 bacteria/ml medium in each well. Each chemosensitising compound was added to the bacterial culture in the wells in two-fold dilutions in order to give final concentrations ranging from 0 to 8 μg/ml. Anti-infective agent was added to the bacterial culture in the wells in two-fold dilutions in order to give final concentrations ranging from 0 to 64 μg/ml Trays were incubated at 37° C. for 16 h. Wells were assessed visually for growth. The Fractional Inhibitory Concentration (FIC) was calculated for each anti-infective agent alone and in combination with trans-flupenthixol, cis-flupenthixol or trans-clopenthixol. The following formulae were used to calculate the FIC index:
# (§3) FIC=FICchemosensitising compound+FICanti-infective agent
# (§4) FICchemosensitising compound=(MICchemosensitising compound+anti-infective agent)/(MICchemosensitising compound)
# (§5) FICanti-infective agent=(MICanti-infective agent+chemosensitising compound/(MICanti-Infective agent)
# (§6) Synergy was defined as a FIC index of <0.5.
# E. coli LN 3164 = assay: Checkerboard combination study (FIC index); format: cell-based; conditions: MDR isolate
# Method: E. coli, LN 3164. Acr AB-ToIC MDR in vitro-selected mutant. Resistant to tetracycline, beta-lactams, fluoroquinolones, chloramphenicol and aminoglycosides.
# as §1, §2, §3, §4, §5, §6
# E. coli, LN 3164 = assay: MIC susceptibility test, microdilution broth method (NCCLS), chemosensitising compound alone; format: cell-based; conditions: 37° C., 16 h
# Method: Bacteria were sub-cultured on Mueller-Hinton agar plates and incubated over night at 37° C. Pre-warmed Mueller-Hinton broth was inoculated with colonies from the plate and incubated for approximately three hours to achieve a log phase culture. The log phase culture of bacteria was diluted with fresh pre-warmed medium and adjusted to a defined Optical Density (OD) at 600 nm in order to give a final assay concentration of 1×10^4 bacteria/ml medium.
# Cell growth was tested using the MIC susceptibility tests by use of the microdilution broth method in accordance to the NCCLS Guidelines (NCCLS Guidelines, Methods for Dilution Antimicrobial Susceptibility Tests for Bacteria That Grow Aerobically; Approved Standard, Sixth Edition, Volume 23; Number 2). A 100% Mueller-Hinton broth and a bacterial concentration of 1×10^4/ml were used.
# A log phase culture of bacteria was diluted with fresh pre-warmed medium and adjusted to a defined OD at 600 nm in order to give a final concentration of 1×10^4 bacteria/ml medium in each well. Each chemosensitising compound was added to the bacterial culture in the wells in two-fold dilutions in order to give final concentrations ranging from 8 to 500 μg/ml. Trays were incubated at 37° C. for 16 h. Minimal Inhibitory Concentration, (MIC) is defined as the lowest inhibitory concentration showing no visible growth according to the NCCLS Guidelines.
# [2] = test system: Enterococcus faecalis BG-029; assay: MIC by microdilution test (NCCLS); format: cell-based; conditions: clinical isolate from human urine, resistant to ciprofloxacin
# Method: A clinical isolate of Enterococcus faecalis BG-029 from human urine was used.
# The MICs were determined by the microdilution test according to the NCCLS Guidelines.
# uninfected MT4 cells = assay: Cytotoxic effect in uninfected MT4 cultures; format: cell-based
# Method: Compounds were examined for possible antiviral activity against strain 111B of HIV-1 using MT4 cells as target cells. MT4 cells were incubated with virus (0.005 MOI) and growth medium containing the test dilutions of compound(s) for six days in parallel with virus-infected and uninfected control cultures without compound added. Expression of HIV in the cultures was indirectly quantified using the MTT assay as previously described. Compounds mediating less than 30% reduction of HIV expression were considered without biological activity. Compounds were tested in parallel for cytotoxic effect in uninfected MT4 cultures containing the test dilutions of compound as described above. Cultures for test of both antiviral activity and cytotoxic effect were set up in tripleduplicates, […] per culture in micro titre plates.
# CC50 is defined as the inhibitory concentration that reduces cellular growth or viability of uninfected cells by 50%.
# E. faecalis F84 = assay: Checkerboard combination study (FIC index); format: cell-based, Enterococcus faecalis; conditions: MDR isolate
# Method: Enterococcus faecalis, F84. A multidrug resistant clinical isolate.
# as §1
# as §2, with “Each chemosensitising compound was added to the bacterial culture in the wells in two-fold dilutions in order to give final concentrations ranging from 0 to 8 μg/ml.” left out
# as §3, §4, §5, §6
smiles,measurement,setting,value
OCCN1CCN(CC/C=C2\c3ccccc3Sc3ccc(Cl)cc32)CC1 [trans-clopenthixol],bactericidal activity in mouse peritoneum (in words),[1],did not affect the bacteria
same,FIC index,E. faecalis F86,0.25
same,FIC index,E. coli LN 3164; anti-infective agent Ciprofloxacin,0.063
same,FIC index,E. coli LN 3164; anti-infective agent Gentamicin,0.063
same,FIC index,E. coli LN 3164; anti-infective agent Piperacillin,0.063
same,MIC,"E. coli, LN 3164",16 µg/mL
same,MIC,[2],6 µg/mL
same,cytotoxic effect (in words),"uninfected MT4 cells; alone, at the concentrations used",no antiviral or cytotoxic effect
same,CC50,"uninfected MT4 cells; compound alone, uninfected MT4",> 3000 nM
same,FIC index,E. faecalis F84; anti-infective agent Dicloxacillin,0.03
same,FIC index,E. faecalis F84; anti-infective agent Vanomycin,0.06
